Consider one substance from patent US8017725B2, “Use of heparin-binding domain of fibronectin for diagnosis and treatment of cancer” (Novartis Forschungesstiftung Zweigniederlassung Friedrich …, priority 2001, dated 2011).

Where only a bound is given, the exact number is not on record here.

Test [1] relates to MDA-MB435 breast carcinoma cells. Kind of test: Adhesion assay (attachment on coated ECM substrata). Type of test: cell-based, human. As to the method:
(§1) 60-well microtiter plates (Nunc) were coated with 10 μg/ml ECM molecules giving rise to 1 μg/cm^2 (fibronectin and tenascin-C) and 4 μg/cm^2 (FNIII13) for 1 h at 37° C. ECM proteins were coated separately, starting with fibronectin, followed by tenascin-C, FNIII13 and BSA. The non-coated plastic surface was blocked with 1% heat-inactivated BSA in PBS giving rise to 10 μg/cm^2 protein. Similarly, mixed substrata of collagen I and laminin 1, respectively with tenascin-C were prepared and tenascin-C was detected by ELISA.
(§2) Efficient fibronectin and tenascin-C coating was determined by ELISA with an anti-fibronectin and anti-tenascin-C antibody (Fischer, D. et al (1995) J Biol Chem 270: 3378-3384), respectively and by PAGE analysis of lysed surface-bound ECM material combined with Coomassie Brilliant Blue staining. Before plating, cells were serum starved for 18 h in DMEM containing 1×ITS (insulin, transferrin, selene) supplement, trypsinised, trypsin was blocked with 100 μg/ml soybean trypsin inhibitor in PBS and, cells were resuspended in serum-free medium and counted. 200-500 cells per well were plated for the indicated time points, fixed by addition of glutaraldehyde (2% final concentration) for 15 minutes and stained with 0.1% crystalviolet in 20% methanol for 30 minutes. Cells were observed under a Nikon microscope (Nikon diaphot) and pictures were taken with a Nikon camera.

For test [2], the system named is CHO-K1 cells. Described as above. Type of test: cell-based, Chinese hamster. Particulars: CHO-K1, 20 h adhesion, ITS. As to the method:
as §1, §2
(§3) The inventors tested whether expression of integrins capable of binding to fibronectin influences tenascin-C-induced compromised attachment on fibronectin. CHO-K1 cells (which express moderate levels of α5β1 (Bauer, J. S. et al (1992) J Cell Biol 116: 477-487)) were compared for levels of adhesion on fibronectin and other ECM substrates with that of cells that either express essentially no fibronectin binding integrins (CHO-B2), or overexpress α5β1 (CHO-B2α27) and αvβ1 (CHO-B2v7), respectively (Schreiner, C. et al (1991) Cancer Res 51: 1738-1740).

Test [3] deals with CHO-B2α27 cells. The description is as above. To be noted: CHO-B2α27, 20 h adhesion, ITS. Type of test: cell-based, Chinese hamster. The procedure:
as §1, §2, §3

The subject of test [4] is CHO-B2 cells. The test is described as above. In kind it is cell-based, Chinese hamster. Particulars: CHO-B2, 20 h adhesion, ITS. As to the method:
as §1, §2, §3

The subject of test [5] is T98G glioblastoma cells. Kind of test: Adhesion assay (attachment and spreading on coated ECM substrata). Type of test: cell-based, human. As to the method:
as §1, §2

Test [6] relates to CHO-K1 cells. Nature of the test: DNA replication assay (3H-thymidine incorporation). Type of test: cell-based, Chinese hamster. Particulars: CHO-K1, ITS. As to the method: (§4) 96-well plates (Falcon) were coated as described above. Cells were serum starved overnight and trypsinised as described. 10^4 cells were transferred onto the coated plates in the presence of the indicated mitogens. 14 h later cells were labelled with radioactive ^3H-thymidine (0.5 μCi/well) for 4 h at 37° C., incorporated ^3H-thymidine was precipitated with 10% TCA and determined with a Beckman scintillation counter after cell lysis in 0.3N NaOH, 2% SDS. For long-term cell proliferation assays 2×10^3 MDA-MB435 cells were plated into ECM-coated 96-well plates in the presence of 10 ng/ml insulin and incubated for the indicated time points in a humidified chamber at 37° C. in a CO^2-incubator. 50% fresh medium with growth factor was added every 24 h. At different time points cells were trypsinised and counted.
(§5) DNA replication was determined by ^3H-thymidine incorporation and is described as relative increase in cpm over cells plated on fibronectin. Serum starved cells were triggered to enter S-phase by 40 ng/ml PDGF-BB (a), 100 ng/ml insulin (b) and ITS (c).
For orientation: Dividing cells build labelled thymidine or BrdU into new DNA.

Test [7] has as its system CHO-B2α27 cells. Kind of test: DNA replication assay (3H-thymidine incorporation). In kind it is cell-based, Chinese hamster. Particulars: CHO-B2α27, ITS. The procedure:
as §4, §5

The subject of test [8] is CHO-B2 cells. Nature of the test: DNA replication assay (3H-thymidine incorporation). In kind it is cell-based, Chinese hamster. Particulars: CHO-B2, ITS. The procedure: as §4, §5
In test [9] the test system is T98G glioblastoma cells. Nature of the test: DNA replication assay (3H-thymidine incorporation). In kind it is cell-based, human. To be noted: 40 ng/ml PDGF-BB. As to the method: as §4
(§6) Cell proliferation and DNA synthesis of MDA-MB435 breast carcinoma, T98G glioblastoma, and Chinese hamster ovary […] cells (CHO) grown on fibronectin, tenascin-C and on mixed fibronectin/tenascin-C substrata was determined. […] After 27 h, 51 h, and 75 h cells were counted. 24% and 33% more cells were counted on fibronectin/tenascin-C than on fibronectin after 51 h and 75 h of culturing, respectively. […]
(§7) DNA replication was determined by ^3H-thymidine incorporation and is described as relative increase in cpm over cells plated on fibronectin. […]

For test [10], the system named is MDA-MB435 breast carcinoma cells. Nature of the test: DNA replication assay (3H-thymidine incorporation). Type of test: cell-based, human. Particulars: MDA MB 435, 100 ng/ml insulin. As to the method: as §4, §6, §7
The test system of another test is all cell lines tested. Kind of test: DNA replication assay, all cell lines tested. Type of test: cell-based. As to the method: as §4
In order to address whether tenascin-C alone and in ECM contexts other than fibronectin might also enhance proliferation, an investigation was carried out into DNA synthesis on a pure tenascin-C substratum where cells remained rounded and, on mixed substrata of collagen I and laminin 1 that contained tenascin-C where cells spread normally. […] To rule out that tenascin-C may shorten S-phase of the cell cycle in tumour cells, DNA synthesis of T98G cells was determined by assay every two hours starting 11 h after plating. […]

For another test, the system named is tumour cell lines. Nature of the test: Adhesion assay on tumour cell lines. Type of test: cell-based. As to the method: as §1
as §2, with “camera. […]” for “camera.”

Regarding “TN: Full length chicken tenascin-C TN260, recombinant, expressed in HEK-293 cells, used as coated substratum”, the “numbers of attached cells” value is reported as 8.2 +/− 3.9 % of cells attached on fibronectin in test [1] (MDA MB 435, 1 h attachment, serum free medium); 4.0 +/− 0.2 % of cells attached on fibronectin in [1] (MDA MB 435, 20 h adhesion, 100 ng/ml insulin); 4.7 +/− 0.2 % of cells attached on fibronectin in the test on CHO-K1 cells [2]; 4.3 +/− 0.7 % of cells attached on fibronectin in the test with CHO-B2α27 cells [3]; 8.0 +/− 2.9 % of cells attached on fibronectin with CHO-B2 cells [4]; 9.3 +/− 0.9 % of cells attached on fibronectin in the test with T98G glioblastoma cells [5] (1 h attachment, serum free medium). Further, in the test on T98G glioblastoma cells [5] (20 h adhesion, 40 ng/ml PDGF-BB), the “numbers of attached cells” value was 14.6 +/− 0.4 % of cells attached on fibronectin. Moreover, the “DNA replication by 3H-thymidine incorporation” value in the test on CHO-K1 cells [6] is listed as 5.9 +/− 1.7 relative increase in cpm over cells plated on fibronectin; with CHO-B2α27 cells [7] it was 11 +/− 3.9 relative increase in cpm over cells plated on fibronectin; in the test on CHO-B2 cells [8], 7.1 +/− 0.2 relative increase in cpm over cells plated on fibronectin; in the test with T98G glioblastoma cells [9], 3.0 +/− 0.9 relative increase in cpm over cells plated on fibronectin; in [10], 2.7 +/− 0.6 relative increase in cpm over cells plated on fibronectin. For the same substance, the “DNA replication indices increase on pure tenascin-C” value in the test on all cell lines tested is no more than 11 fold. For the same substance, the “cells attached on tenascin-C” value with tumour cell lines (1 h after plating, all cell lines tested) was “less than 10%”. The “blocking of cell attachment on fibronectin” value in the test with tumour cell lines (molar ratio of tenascin-C to fibronectin of 1:8) is “blocked cell attachment on fibronectin as efficiently as in an equimolar ratio”.
